PubChem BioAssay (NCI)
Where “and” joins values, the source holds several entries; their conditions need not be identical. Equal values may be shown once.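 Following 48 hours of exposure in 96-well plates, responses at five concentrations were used to interpolate endpoints linearly. The concentration for 50% growth inhibition is given as GI50. TGI: concentration producing complete growth inhibition.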

Columns and labels:
Experiment in all cases: NCI tumour cell line growth inhibition, 48 h
HCC-2998 colon = test system: HCC-2998 colon
SF-295 CNS = test system: SF-295 CNS
NCI/ADR-RES ovarian = test system: NCI/ADR-RES ovarian
UO-31 renal = test system: UO-31 renal
SK-MEL-28 melanoma = test system: SK-MEL-28 melanoma
IGROV1 ovarian = test system: IGROV1 ovarian
NCI-H460 lung = test system: NCI-H460 lung
SK-OV-3 ovarian = test system: SK-OV-3 ovarian
SF-539 CNS = test system: SF-539 CNS
MDA-MB-231 breast = test system: MDA-MB-231 breast

SMILES | TGI (HCC-2998 colon) [µM] | TGI (SF-295 CNS) [µM] | TGI (NCI/ADR-RES ovarian) | TGI (UO-31 renal) [µM] | TGI (SK-MEL-28 melanoma) [µM] | TGI (IGROV1 ovarian) | TGI (NCI-H460 lung) | TGI (SK-OV-3 ovarian) [µM] | TGI (SF-539 CNS) | TGI (MDA-MB-231 breast) [µM] | GI50 (HCC-2998 colon) | GI50 (SF-295 CNS) | GI50 (NCI/ADR-RES ovarian) | GI50 (UO-31 renal) | GI50 (SK-MEL-28 melanoma) | GI50 (IGROV1 ovarian) | GI50 (NCI-H460 lung) | GI50 (SK-OV-3 ovarian) | GI50 (SF-539 CNS) | GI50 (MDA-MB-231 breast)
c1ccc(CN2CCc3[nH]c4ccccc4c3C2)cc1 | 30.1 | 65.9 | > 63.3 µM | 79.2 | 32.8 | > 79.5 µM | 31 µM | 98.4 | 56.2 µM | 48.9 |  |  |  |  |  |  |  |  |  | 
C=CC(COC(=O)C(C)(C)OC(C)=O)c1ccc(OC(=O)C(C)C)c(OC)c1 (configuration not stated) | 10.5 | 19.9 | > 84.9 µM | 21.1 | 35.5 | 34.3 µM | 7.78 µM | 30.8 | 27.5 µM | 9.36 |  |  |  |  |  |  |  |  |  | 
Cc1ccc(S(=O)(=O)OCC#CCOS(=O)(=O)c2ccc(C)cc2)cc1 | 8.73 | 3.62 | 5.93 µM | 0.538 | 7.8 | 2.86 µM | 4.07 µM | 14.9 | 7.01 µM | 11 | 2.85 µM | 1.74 µM | 2.12 µM | 0.228 µM | 2.69 µM | 0.992 µM | 1.8 µM | 6.51 µM | 2.5 µM | 3.39 µM
NCCCOc1cc2ccccc2cc1C(=O)Nc1ccc(Cl)cc1OC(=O)c1cc2ccccc2cc1OCCCN | 2.82 | 1.44 | 2.79 µM | 0.433 | 0.949 |  | 0.345 µM | 3.19 | 0.9 µM | 1.99 | 1.43 µM | 0.516 µM | 1.17 µM | 0.179 µM | 0.382 µM |  | 0.195 µM | 1.57 µM | 0.345 µM | 0.596 µM
C[C@H]1C/C=C/[C@H]2[C@@H]3O[C@]3(C)[C@@H](C)[C@H]3[C@H](Cc4ccccc4)NC(=O)[C@]32OC(=O)O/C=C/[C@@](C)(O)C1=O |  |  | > 81.9 µM and 125 µM and 160 µM | 0.0499 |  | > 33.5 µM and 125 µM and > 250 µM | 43.8 µM and 125 µM and 36.9 µM |  |  | 3.36 | 0.155 µM and 0.342 µM | 0.0484 µM and 0.025 µM | 34 µM and 33.3 µM |  | 0.0204 µM and 0.047 µM | 0.0703 µM and 0.0723 µM and 0.025 µM | 0.0125 µM and 0.025 µM | 0.025 µM | 0.0125 µM and 0.025 µM | 
Cc1cc(-c2nnc(/C=C/c3ccc4c(c3)OCO4)o2)n[nH]1 | > 50 | 38 | 21.4 µM | > 50 | > 50 | > 50 µM | > 50 µM | > 50 | > 50 µM | > 50 | 10.7 µM | 7.04 µM | 7.33 µM | 14.7 µM | 24.1 µM | 9.57 µM | 15.1 µM | 21.1 µM | 12.5 µM | 16.9 µM
O=C1CC[C@H](N2Cc3c(OCc4ccc(CN5CCOCC5)cc4)cccc3C2=O)C(=O)N1 | > 100 | > 100 | > 100 µM | > 100 | > 100 | > 100 µM | > 100 µM | > 100 | > 100 µM | > 100 | > 100 µM | > 100 µM | > 100 µM | > 100 µM | > 100 µM | > 100 µM | > 100 µM | > 100 µM | > 100 µM | > 100 µM
N#Cc1ccc(-c2c(-c3ncn[nH]3)sc(N3CCOCC3)c2C#N)c(F)c1 | 17.2 | 11.4 | > 100 µM | 11.2 | 5.33 | 0.948 µM | 23.6 µM | 5.69 | 4.53 µM | 25.7 | 1.08 µM | 0.426 µM | 3.19 µM | 0.191 µM | 0.458 µM | 0.181 µM | 0.419 µM | 0.197 µM | 0.571 µM | 3.28 µM
CC1=C(/C=C/C(=O)CC(=O)/C=C/C2=C(C)CCCC2(C)C)C(C)(C)CCC1 | > 100 | 54.4 | > 100 µM | > 100 | > 100 | 88.5 µM | 82.1 µM | > 100 | > 100 µM | > 100 | 35.4 µM | 15.6 µM | 31.4 µM | 26.8 µM | 27 µM | 21 µM | 18.6 µM | 40.6 µM | 26 µM | 52.3 µM
C=C1c2ccccc2C(=O)c2c1c1c(C(=O)OC)c(OC(=O)OCc3ccc([N+](=O)[O-])cc3)ccc1n2Cc1ccccc1 | 39 | > 100 | 15 µM | 45.4 |  | 41.9 µM | 88.6 µM | 57.6 | 32.3 µM | 65.6 | 16.7 µM | 33.7 µM | 3.46 µM | 8.28 µM |  | 14 µM | 26.8 µM | 23.8 µM | 6.47 µM | 18.3 µM
CCOC(=O)Nc1nc2ccccc2[nH]1 | > 100 | > 100 | 35.3 µM and > 25.9 µM | > 100 | > 100 | > 100 µM | > 100 µM | > 100 | 9.69 µM and > 32.1 µM | > 100 | 19.8 µM and 95.3 µM | 4.32 µM and 5.57 µM | 3.55 µM and 3.47 µM | 5.8 µM and 5.34 µM | 8.43 µM | > 26.6 µM and 4.1 µM | 4.27 µM and 3.6 µM | 4.69 µM and 4.19 µM | 2.63 µM and 2.92 µM | 12.9 µM and 19.3 µM
COc1cc(Cl)cc(-c2nn(-c3cccc(NC(=O)Nc4cccc(C(F)(F)F)c4)c3)cc2-c2ccncc2)c1 | 14 | 4.62 | 7.81 µM | 7.75 | 12.1 | 22.7 µM | 4.66 µM | 58.4 | 4.82 µM | 4.91 | 3.47 µM | 0.783 µM | 1.65 µM | 1.03 µM | 2.53 µM | 2.86 µM | 0.84 µM | 3.61 µM | 1.9 µM | 1.59 µM
O=S(=O)(NCCNc1nccc(-c2c(-c3ccc(F)c(O)c3)nc3sccn23)n1)c1ccc(Cl)cc1 | > 50 | 14.2 | 17.5 µM | > 50 |  | > 50 µM | > 50 µM | 15.9 | 11.9 µM | 24.1 | 2.93 µM | 2.35 µM | 1.79 µM | 0.94 µM |  | 1.45 µM | 1.93 µM | 2.8 µM | 5.09 µM | 2.98 µM
